Earlier results in patent publication US20020045179A1, “Toxicity typing using mesenchymal stem cells” (priority 2000, published 2002).
Like-named read-outs stand apart in the source and are kept apart here.

Assays:
[1] = for liver toxicity (in words): predetermined toxicity stated in text of Example 2
[2] = in vivo
[3] = in vivo; remark: listed apart in the source
[4] = in vivo; remark: listed apart in the source
[5] = Table 1, predetermined toxicity by tissue/organ

In the case of `CC(=O)Nc1ccc(O)cc1` [acetominophen], the “TOXICITIES LIVER” value ([1]; in vivo) is listed as “+”.

For `c1ccc2c(c1)cc1ccc3cccc4ccc2c1c34` [benzo(a)pyrene], the “TOXICITIES CV” value [2] is given as “+”.

For `N.N.O=C([O-])C1(C(=O)[O-])CCC1.[Pt+2]` [carboplatin], the “TOXICITIES GI” value [3] is given as “+”.

For `CCOC(=O)C(C)(C)Oc1ccc(Cl)cc1` [clofibrate], the “TOXICITIES LIVER” value [1, 5] is given as “ntc”.

For `N=C(N)NCCCCCCC(=O)NC(O)C(=O)NCCCCNCCCN` (stereo not drawn) [deoxyspergualin], the “TOXICITIES CV” value [2] is given as “+”.

In the case of `CCC(=O)O[C@H]1[C@H](O[C@@H]2[C@@H](C)[C@H](O[C@H]3C[C@@](C)(OC)[C@@H](O)[C@H](C)O3)[C@@H](C)C(=O)O[C@H](CC)[C@@](C)(O)[C@H](O)[C@@H](C)C(=O)[C@H](C)C[C@@]2(C)O)O[C@H](C)C[C@@H]1N(C)C` [erythromycin estolate], the “liver toxicity (in words)” value [1] is listed as “known liver toxicity”.

In the case of `COc1nc(C(Cl)(Cl)Cl)c(Cl)c(OC)c1Cl` [penclomedine], the “TOXICITIES CNS” value [4] is given as “+”.

For `CN(CCOc1ccc(CC2SC(=O)NC2=O)cc1)c1ccccn1` (stereo not drawn) [rosiglitazone], the “TOXICITIES LIVER” value [1, 5] is listed as “ntc”.

In the case of `Cc1c(C)c2c(c(C)c1O)CCC(C)(COc1ccc(CC3SC(=O)NC3=O)cc1)O2` (stereo not drawn) [troglitazone], the “liver toxicity (in words)” value [1] is given as “rare but severe liver toxicity”.
